Reference: patent US10369159B2, “Estrogen receptor β partial agonist having estrogen receptor α inhibitory effect, and gynecological disease therapeutic agent using same” (NOBELPHARMA CO., LTD., priority 2015, dated 2019)
“And” between values parts separate entries of the source, which are not always exact repeats. Equal entries are not always repeated.

Assays:
[1] = system: rat endometriosis model (grafted uterine strips); assay: Endometriosis inhibiting activity: grafted uterine strip weight in ovariectomized, E2-treated rat endometriosis model; assay type: in vivo; details: for Total wet weight of the grafted uterine strips: left and right strips including abdominal wall, vehicle 0.4785 g, Sham 0.2596 g; for Suppression rate of grafted uterine strip weight (% ± SE): vs vehicle control, strip weight after subtracting Sham abdominal wall; for Suppression rate of the grafted uterine strip (average value): vehicle control group set as 0%, Table 2
Description: Buprenorphine hydrochloride (Lepetan injection 0.3 mg, Otsuka Pharmaceutical Co., Ltd., […] of which was diluted to 6.7 times with a physiological saline solution to provide 0.03 mg/mL solution when using) was administered subcutaneously into the back of the rats at a dose of 0.0024 mg/body (0.08 mL/body). The administration period was two days, which includes twice before and after the model preparation on the day when the model was prepared, and twice per day on the next day. It should be noted that the dosage amount of 0.0024 mg/body was the one that satisfied a recommended dose of 0.01 mg/kg in […] (0.0096 mg/kg) (estimated weight upon model preparation: 180 to 240 g).
Under 2% inhalation anesthesia, left and right flanks of the rats (operation site) were shaved, and the skin of one of the flasks was dissected. After peeling off the skin, the muscle layer was cut to open using a retractor so as to protrude it to the outside of the body with fat tissue around the ovary, then the fallopian tubes were ligated with a silk thread (sterile suture) followed by removing the ovary including the fat tissue. The peeled muscle layer and one part of the peritoneum were sutured with silk thread (sterile suture), then kanamycin solution, antibiotics, (manufactured by Meiji Seika Pharma Co., Ltd., “Meiji,” kanamycin sulfate injection of 1000 mg was diluted to 5 mg/mL with injection solvent) was applied to the operation site. The dissected skin was sutured with silk thread (sterile suture). Another ovary in the opposite side was removed in the same manner. At the time of the operation, sterile gloves were used, and surgical instruments used were sterilized by an autoclave and beads sterilizer. The surgical area was shaved with an electric clipper followed by disinfected with isodine alcohol and covered with a sterile bedsheet and a covering cloth.
Since the day of ovariectomy, after it was performed, E2 (β-Estradiol, 3 μg/mL animal) was subcutaneously administered to the back of the rats every day for 2 weeks. E2 (3 μg/mL animal) was administered in the same manner during 4 weeks after model preparation on the date that the model was prepared.
Thirteen days after ovariectomy (day 0 counting), the rats were divided into four groups (N=8) as the total weight on the grouping day was uniform in each group. Animals excluded from the groups were distributed to the Sham group.
On the next day of the grouping, models were prepared in accordance with Uchiide et al method, which was partially modified Vernon et al method. Rats were placed under inhalation anesthesia of 2% isoflurane, and made an incision in the abdomen along the midline, then the right uterine horn was excised and cut in half along the vertical line after removing the fat cells around the excised uterine horn. The uterine horn was made an incision along the horizontal axis to cut out two strips of approximately 5 mm×5 mm. The serosal surface of the abdominal cavity and the endometrial surface of the uterus strips were faced and sawed up the four corners thereof with a bioabsorbable suture (6-0, PDS-II, manufactured by Ethicon) to graft the uterine horns into the right and left abdominal walls one by one. In order to avoid adhesion, the abdominal cavity was washed with saline (manufactured by Otsuka Pharmaceutical Factory). Then, the abdominal wall fascia was sawed up with a bioabsorbable suture (4-0, monocryl, manufactured by Ethicon) and the skin was sawed up with a silk suture (4-0, blade silk, manufactured by Ethicon).
A required amount of SR16234 was weighed, pulverized with an agate mortar and pestle, and suspended in 0.5% carboxymethylcellulose sodium (CMC-Na) solution to prepare a 2 mg/mL solution, then used as undiluted solution. Preparation was performed using a volumetric flask. […]

Erb = assay: Gene expression analysis of endometrial implants (TaqMan), Erb; assay type: in vivo, rat; details: for Expression level Erb: endometrial implants, corrected by GAPDH, n 6, E2 control 2.37 ± 1.07
Description: (§1) Total RNA was extracted […] the rat-derived endometrial graft (27 specimens), then quality of the RNA was inspected with a spectrophotometer and bio-analyzer, and then reverse transcription reaction of the RNA was performed, followed by gene expression analysis was performed according to TaqMan method.
(§2) RNA was extracted from the rat uterine horn strips and grafted uterine strip using the RNeasy Fibrous Tissue Mini Kit.
(§3) Concentration of the extracted RNA was measured with a NanaoDrop. Also RIN measurements using a bioanalyzer (6000 nano kits) was carried out. A 6000 pico-kit was used for bioanalyzing of the two samples with low yield (Sample ID: 202, 507).
(§4) cDNA obtained by reverse transcription reaction from 1000 ng/uL of commercially available Rat Tissue Universal Reference Total RNA (Catalog Number PR-UR-100, ZYAGEN Inc.) using SuperScript VILO Master Mix (hereinafter “Standard”) was used as a standard substance.
(§5) Based on the concentration measured with a spectrophotometer, reverse transcription reaction of the specimen with Super Script VILO Master Mix was performed to give 50 ng/uL of cDNA (the following example). As for the samples with low yield, that is Sample ID: 202, 502, 507, the reverse transcription reaction was performed to give 25 ng/uL, 25 ng/uL, and 12.5 ng/uL of cDNA, respectively.
(§6) TaqMan reaction by using Step One Plus Real-Time PCR System was performed with standard 250, 62.5, 15.625, 3.9, 0.98 ng/well or sample 5.0 ng/well. A cycle of reaction, two minutes at 50° C. and 10 minutes at 95° C., followed by 15 seconds at 95° C. and one minute at 60° C., was repeated 40 cycles, then the fluorescence value FAM was measured in real time after the reaction at 60° C. In addition to the target eight genes, GAPDH gene as an internal control gene was measured. All the standards and samples were measured in triplicate.
(§7) From each of the two calibration curves (target gene, GAPDH gene) obtained from the standard, gene expressions level of the target gene and GAPDH gene of the sample was calculated, respectively. Then, the target gene expression level was corrected by the GAPDH gene expression level, the internal control gene. And then, an average gene expression level of the samples in each group was calculated, followed by the average gene expression level of the two groups was used as a standard to compare with each of the other groups.

VEGF = assay: Gene expression analysis of endometrial implants (TaqMan), VEGF; assay type: in vivo, rat; details: for Expression level VEGF: endometrial implants, corrected by GAPDH, n 6, E2 control 1.62 ± 0.43
Description: as §1, §2, §3, §4, §5, §6, §7

[2] = in comparison with the E2 control group

## CCN(CC)Cc1ccc(OCC[C@H]2CC[C@H]3[C@@H]4[C@H](C)Cc5cc(O)ccc5[C@H]4CC[C@]23C)c(OC)c1 [SR16234, (7α)-21-[4-[(diethylamino)methyl]-2-methoxyphenoxy]-7-methyl-19-norpregna-1,3,5(10)-triene-3-ol]
[1]; 0.1 mg/kg p.o. 28 days
  Total wet weight of the grafted uterine strips: 0.3988 g
[1]; 0.1 mg/kg p.o. once a day for 28 days
  Suppression rate of grafted uterine strip weight (% ± SE): 36.4 ± 25.2%
[1]; 0.1 mg/kg p.o.
  Suppression rate of the grafted uterine strip (average value): 26%
[1]; 0.3 mg/kg p.o. 28 days
  Total wet weight of the grafted uterine strips: 0.3401 g
[1]; 0.3 mg/kg p.o. once a day for 28 days
  Suppression rate of grafted uterine strip weight (% ± SE): 63.2 ± 17.7%
[1]; 0.3 mg/kg p.o.
  Suppression rate of the grafted uterine strip (average value): 45%
[1]; 1.0 mg/kg administered group
  Suppression rate of the grafted uterine strip weight compared to the vehicle control group (in words): particularly significant suppression rate
  Total wet weight of the grafted uterine strips compared to the vehicle control group (in words): particularly significant suppression ratio
[1]; 1.0 mg/kg p.o. 28 days
  Total wet weight of the grafted uterine strips: 0.2647 g
[1]; 1.0 mg/kg p.o. once a day for 28 days
  Suppression rate of grafted uterine strip weight (% ± SE): 97.7 ± 21.2%
[1]; 1.0 mg/kg p.o.
  Suppression rate of the grafted uterine strip (average value): 68% and 69.0%
Erb; 0.1 mg/kg
  Expression level Erb: 4.05 ± 1.88 ng
Erb; 0.3 mg/kg
  Expression level Erb: 3.05 ± 1.02 ng
Erb; 1 mg/kg
  Expression level Erb: 2.08 ± 1.51 ng
Erb; [2]
  Effect on the estrogen receptor gene expression of Erb (in words): not observed
VEGF; 0.1 mg/kg
  Expression level VEGF: 1.44 ± 0.43 ng
VEGF; 0.3 mg/kg
  Expression level VEGF: 1.65 ± 0.40 ng
VEGF; 1 mg/kg
  Expression level VEGF: 1.33 ± 0.57 ng
VEGF; [2]
  Effect on the gene expression of VEGF (in words): No effect
